Results on three compounds are retold here after patent publication EP2014655B1, “Etnangien derivatives and their use as antibiotics” (Helmholtz-Zentrum für Infektionsforschung, priority 2007, dated 2009).

One experiment concerns Bacillus subtilis. The experiment can be described thus: MIC by serial dilution. In kind it is cell-based. As for the experimental part:
(§1) Antibiotic activity, which is assumed to be based on the inhibition of the RNA polymerase, was tested against several gram-positive and gram-negative bacteria and Saccharomyces cerevisiae, including a Rifampicin resistant Staphylococcus aureus clinical isolate.
(§2) The microorganisms tested were grown on 1% peptone, 0.1% meat extract, 0.1% yeast extract medium containing 1.5% agar at pH 7.0. MIC values were determined by serial dilution. Table 2: Antimicrobial activity of Etnangien methylester in comparison to Etnangien acid 1

For experiment [1], the system named is Corynebacterium glutamicum (DSM 20300). The experiment can be described thus: MIC by serial dilution. Conditions: DSM20300. It is filed as cell-based. As for the experimental part: as §1, §2
The next experiment deals with E. coli. As to the kind of experiment: MIC by serial dilution. It is filed as cell-based. To be noted: Escherichia coli. As for the experimental part: as §1, §2
The test system of another experiment is Micrococcus luteus. The experiment can be described thus: MIC by serial dilution. It is filed as cell-based. As for the experimental part:
as §1, §2

Another experiment concerns Nocardia corallina. The experiment can be described thus: MIC by serial dilution. It is filed as cell-based. To be noted: Gordonia rubripertincta. As for the experimental part: as §1, §2
In experiment [2] the test system is S. aureus, Rifampicin resistant. As to the kind of experiment: MIC by serial dilution. It is filed as cell-based. Conditions: Staphylococcus aureus. As for the experimental part:
as §1, §2

A further experiment relates to Saccharomyces cerevisiae. As to the kind of experiment: MIC by serial dilution. It is filed as cell-based. As for the experimental part: as §1, §2
The subject of the next experiment is Staphylococcus aureus. As to the kind of experiment: MIC by serial dilution. It is filed as cell-based. As for the experimental part:
as §1, §2

Experiment [3] deals with T1, HIV I reverse transcriptase (HIVRT) (Human immunodeficiency virus type 1 group M subtype B, UniProt P04585).
T1 construct: HIV I reverse transcriptase (HIVRT)
As to the kind of experiment: Nucleic acid polymerase inhibition, in vitro assay. In kind it is biochemical. Conditions: result in words. As for the experimental part: (§3) Similar antiviral activity is found for the Etnangien esters according to the invention.
(§4) Measurement results showing the nucleic acid polymerase inhibition by Etnangien 1 are shown in Figure 2 for E. coli RNA polymerase (EcRNAP), E. coli DNA polymerase (EcDNAP), and HIV I reverse transcriptase (HIVRT), and in Figure 3 for Moloney murine leukemia virus reverse transcriptase (MuLVRT). In vitro assays were performed according to Richardson et al. (J. Biol. Chem. 222-232 (1964)) and Houts et al. (J. Virol. 517-522(1979)). Maximum inhibition for E. coli polymerases was found for concentrations of 50 to 60 µg/mL, although E. coli itself was rather resistant.

For experiment [4], the target named is T2, Moloney murine leukemia virus reverse transcriptase (MuLVRT) (Moloney murine leukemia virus, UniProt P03355).
T2 construct: Moloney murine leukemia virus reverse transcriptase (MuLVRT)
As to the kind of experiment: Nucleic acid polymerase inhibition, in vitro assay. It is filed as biochemical. As for the experimental part:
as §3, §4

≈ marks a conversion by molar mass, not a printed value.

One may read the MIC as the least concentration at which growth counts as inhibited. The low end stands for a more susceptible organism, the high end for a less susceptible organism. For `COC(=O)CC/C(C)=C/C(O)C/C=C/C=C/C=C/C=C/C=C/C(C)=C/C(O)C(C)C1CC(O)CCCC(OC)C/C=C\C=C\CC(C)C(O)C(C)C(O)C(C)C(O)CC(=O)O1` (stereo not drawn) [Etnangien methylester], the MIC with Bacillus subtilis is 20 µg/mL (≈ 23.4 µM); in experiment [1], 0.24 µg/mL (≈ 0.281 µM); in the experiment on E. coli, greater than 80 µg/mL; with Micrococcus luteus, 0.39 µg/mL (≈ 0.456 µM); against Nocardia corallina it was 0.12 µg/mL (≈ 0.14 µM); in experiment [2] it was 3.1 µg/mL (≈ 3.63 µM). The minimal inhibitory concentration (MIC) is greater than 40 µg/mL against Saccharomyces cerevisiae and 2.5 µg/mL (≈ 2.92 µM) in the experiment on Staphylococcus aureus.

In the experiment with E. coli, `COC1C/C=C\C=C\CC(C)C(O)C(C)C(O)C(C)C(O)CC(=O)OC(C(C)C(O)/C=C(C)/C=C/C=C/C=C/C=C/C=C/CC(O)/C=C(\C)CCC(=O)O)CC(O)CCC1` (stereo not drawn) [Etnangien] registered an MIC greater than 80 µg/mL.

As for Etnangien, the “inhibition of viral reverse transcriptase” value in experiment [3] is “potent inhibitor”. Besides, in experiment [4] (MuLVRT, Figure 3), the “concentration of maximum inhibition” value turned out to be 5 µg/mL. In addition, the “inhibition of reverse transcriptase” value in experiment [4] (at concentrations of 5 µg/mL) was “inhibited completely”.
